Assay results as given in patent US11512053B2, “Arginine methyltransferase inhibitors and uses thereof” (priority 2013, dated 2022).
Structures can show the parent of a compound that is named as a salt. Where two headings read alike, the source gives them in different places.

Legend:
[1] = test system: mono-methyl arginine in RKO cells; test: RKO Methylation Assay, In Cell Western (ICW) for detection of mono-methyl arginine and DNA content; type: cell-based; conditions: for EC30: Homo sapiens, RKO, 72 h
Outline: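 RKO cells were treated with compound for 72 hours at 37 °C, methanol-fixed and stained overnight at 4 °C with anti-mono-methyl arginine (1:200), with DRAQ5 for DNA. Odyssey 800/700 nm intensity ratio was normalized to DMSO and 20 μM reference-compound controls. EC30 from triplicate nine-point curves.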

[2] = biological target: full-length human PRMT6 (Flag- and His-tagged) (Homo sapiens, UniProt Q96LA8); test: PRMT6 Biochemical Assay (3H-SAM Flashplate, peptide substrate); conditions: read-out: Biochemical IC50 PRMT6
Sequence of full-length human PRMT6 (Flag- and His-tagged) (Q96LA8 with tags, fused parts or gaps): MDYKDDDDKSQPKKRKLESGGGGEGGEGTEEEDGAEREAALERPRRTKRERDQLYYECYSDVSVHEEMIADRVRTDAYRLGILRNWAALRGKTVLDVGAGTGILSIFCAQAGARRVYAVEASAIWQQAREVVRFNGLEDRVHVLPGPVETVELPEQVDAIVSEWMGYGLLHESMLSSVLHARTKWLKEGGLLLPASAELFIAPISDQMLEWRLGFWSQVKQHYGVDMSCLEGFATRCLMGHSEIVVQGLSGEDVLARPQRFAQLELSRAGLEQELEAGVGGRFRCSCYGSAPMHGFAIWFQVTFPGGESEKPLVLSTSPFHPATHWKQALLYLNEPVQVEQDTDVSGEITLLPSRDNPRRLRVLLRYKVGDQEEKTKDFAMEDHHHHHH
Outline: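 Flag/His-tagged full-length human PRMT6 (1 nM) preincubated with compound 30 min at room temperature in Bicine pH 7.6 buffer, then reaction started with 3H-SAM 200 nM plus unlabeled SAM 250 nM and biotinylated H4 36-50 peptide (K44me1) 75 nM; 2% DMSO. Quenched with 400 uM cold SAM; labeled peptide captured on streptavidin Flashplate, counted; % inhibition vs DMSO and 1 mM SAH controls fit by 3- or 4-parameter curve.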

[3] = RKO cells, 72 hours incubation, mono-methyl arginine signal normalised to DNA content, single experiment or average of multiple experiments, read-out: In Cell Western EC30
[4] = RKO cells, 72 hours compound incubation, mono-methyl arginine signal normalised to DNA content (DRAQ5), percent activation vs 20 μM reference compound
[5] = single experiment or average of multiple experiments
[6] = RKO cells, 72 hours compound incubation, mono-methyl arginine signal normalised to DNA content (DRAQ5), percent activation vs 20 μM reference compound, read-out: In Cell Western EC30
[7] = read-out: In Cell Western EC30, RKO cells, 72 hours compound incubation, mono-methyl arginine signal normalised to DNA content (DRAQ5), percent activation vs 20 μM reference compound
[8] = read-out: In Cell Western EC30, RKO cells, 72 hours incubation, mono-methyl arginine signal normalised to DNA content, single experiment or average of multiple experiments

In the case of `CN(CCN)Cc1n[nH]cc1C1CCCCC1` [Compound 33], the EC30 [1, 3] is reported as 3330 nM, the “In Cell Western EC30” value [1, 4] is reported as “B (“B” indicates an EC30 of 3.01-12.00 μM)” and the IC50 [2, 5] is reported as 20 nM.

In the case of `Cc1n[nH]cc1CN(C)CCN` [Compound 30], the EC30 [1, 3] is reported as > 20000 nM, the “In Cell Western EC30” value [1, 4] is reported as “C (“C” indicates an EC30 > 12.01 μM)” and the IC50 [2, 5] is reported as 6590 nM.

In the case of `CNCCN(C)Cc1c[nH]nc1C1CCN(C(=O)C(C)C)CC1` [Compound 34], the EC30 [1, 3] is reported as 1150 nM, the “In Cell Western EC30” value [1, 4] is reported as “A (“A” indicates an EC30 ≤ 3.00 μM)” and the IC50 [2, 5] is reported as 30 nM.

For `CNCCN(C)Cc1c[nH]nc1C1CCC(C(C)C)CC1` (stereo not drawn) [Compound 50], the EC30 [1, 6] was < 3000 nM, the EC30 [1, 3] was 27 nM and the IC50 [2] was < 100 nM. The IC50 [2, 5] was 20.6 nM.

With `CNCCN(C)Cc1c[nH]nc1C1CCC(C)(C)CC1` [Compound 52] the EC30 [1, 3] was 41 nM, the IC50 [2] was < 100 nM and the IC50 [2, 5] was 24.3 nM.

In the case of `CNCCN(C)Cc1c[nH]nc1C1CCC(COCCOC)(COCCOC)CC1` [Compound 60], the EC30 [1, 6] is reported as < 3000 nM, the EC30 [1, 3] is reported as 2840 nM and the IC50 [2] is reported as 101 to 1000 nM. The IC50 [2, 5] was 155 nM.

With `CNCCN(C)Cc1ccnn1C1CCC2(CC1)CC(C)(C)CO2` (stereo not drawn) [Compound 274, trifluoroacetate] the EC30 [1, 7] was < 3000 nM, the EC30 [1, 8] was 16.8 nM and the IC50 [2] was 101 to 1000 nM. It also gave an IC50 [2, 5] of 103 nM.

For `CNCCN(C)Cc1c[nH]nc1[C@H]1CC[C@]2(CC1)CC(C)(C)CO2` [Compound 134, methyl[2-(methylamino)ethyl]([3-[(5r,8r)-3,3-dimethyl-1-oxaspiro[4.5]decan-8-yl]-1H-pyrazol-4-yl]methyl)amine], the EC30 [1, 7] was < 3000 nM, the EC30 [1, 8] was 33.2 nM and the IC50 [2] was < 100 nM. It also gave an IC50 [2, 5] of 35.1 nM.

With `CNCCN(C)Cc1c[nH]nc1C1CCC(Oc2ccccc2)CC1` (stereo not drawn) [Compound 67] the EC30 [1, 6] was < 3000 nM, the EC30 [1, 3] was 81 nM and the IC50 [2] was < 100 nM. The IC50 [2, 5] was 18 nM.

`CNCCN(C)Cc1c[nH]nc1C1CC(C)(C)OC(C)(C)C1` [Compound 59] was tested, and the EC30 [1, 3] was 357 nM, the IC50 [2] was 101 to 1000 nM and the IC50 [2, 5] was 128 nM.

With `CNCCN(C)Cc1c[nH]nc1C1CCC2(CCCO2)CC1` (stereo not drawn) [Compound 51] the EC30 [1, 6] was < 3000 nM, the EC30 [1, 3] was 52 nM and the IC50 [2] was < 100 nM. It also gave an IC50 [2, 5] of 23.9 nM.

With `CCC(CC)OC1CCC(c2n[nH]cc2CN(C)CCNC)CC1` (stereo not drawn) [Compound 70] the EC30 [1, 6] was < 3000 nM, the EC30 [1, 3] was 50 nM and the IC50 [2] was < 100 nM. For the same compound, the IC50 [2, 5] was 44 nM.

In the case of `CN(CCN)Cc1c[nH]nc1C1CCC2(CCCC2)CC1` [Compound 45], the EC30 [1, 6] is reported as < 3000 nM, the EC30 [1, 3] is reported as 54 nM and the IC50 [2] is reported as < 100 nM. It also gave an IC50 [2, 5] of 5.6 nM.

For `CN(CCN)Cc1c[nH]nc1/C=C/Cc1ccccc1` [Compound 24], the EC30 [1, 3] was 2400 nM, the “In Cell Western EC30” value [1, 4] was “A (“A” indicates an EC30 ≤ 3.00 μM)” and the IC50 [2, 5] was 180 nM.

For `CNCCN(C)Cc1c[nH]nc1[C@H]1CC[C@@]2(CC1)CC(C)(C)CO2` [Compound 133, Methyl[2-(methylamino)ethyl]([3-[(5s,8s)-3,3-dimethyl-1-oxaspiro[4.5]decan-8-yl]-1H-pyrazol-4-yl]methyl)amine], the EC30 [1, 7] was < 3000 nM, the EC30 [1, 8] was 43.8 nM and the IC50 [2] was < 100 nM. It also gave an IC50 [2, 5] of 12.4 nM.

`CNCCN(C)Cc1c[nH]nc1C1CCC(C)(C)C(COCC(C)C)C1` (stereo not drawn) [Compound 95] was tested, and the EC30 [1, 6] was < 3000 nM, the EC30 [1, 3] was 122 nM and the IC50 [2] was < 100 nM. For the same compound, the IC50 [2, 5] was 69.2 nM.

With `CNCCN(C)Cc1c[nH]nc1C1CCC(CCOC)CC1` (stereo not drawn) [Compound 55] the EC30 [1, 6] was < 3000 nM, the EC30 [1, 3] was 63 nM and the IC50 [2] was < 100 nM. The IC50 [2, 5] was 40.4 nM.

Work on `CC(C)Cc1n[nH]cc1CN(C)CCN` [Compound 28, N^1-((3-iso-butyl-1H-pyrazol-4-yl)methyl)-N^1-methylethane-1,2-diamine] yielded an EC30 [1, 6] of 3010 to 12000 nM, an EC30 [1, 3] of 11100 nM and an IC50 [2, 5] of 80 nM.

For `CC(C)c1n[nH]cc1CN(C)CCN` [Compound 21], the EC30 [1, 3] was > 20000 nM, the “In Cell Western EC30” value [1, 4] was “C (“C” indicates an EC30 > 12.01 μM)” and the IC50 [2, 5] was 670 nM.

With `CNCCN(C)Cc1c[nH]nc1C1CCNCC1` [Compound 42] the EC30 [1, 3] was > 20000 nM, the “In Cell Western EC30” value [1, 4] was “C (“C” indicates an EC30 > 12.01 μM)” and the IC50 [2, 5] was 20 nM.

`CNCCN(C)Cc1c[nH]nc1C1CCC(C)(C)C(C(=O)NCC(C)C)C1` (stereo not drawn) [Compound 90] was tested, and the EC30 [1, 6] was < 3000 nM, the EC30 [1, 3] was 316 nM and the IC50 [2] was 101 to 1000 nM. The IC50 [2, 5] was 122 nM.

For `CNCCN(C)Cc1c[nH]nc1C1CCC2(CCCCC2)CC1` [Compound 46], the EC30 [1, 6] was < 3000 nM, the EC30 [1, 3] was 8 nM and the IC50 [2] was < 100 nM. The IC50 [2, 5] was 12.2 nM.

With `CNCCN(C)Cc1c[nH]nc1C1CCC2(CCOC2)CC1` (stereo not drawn) [Compound 54] the EC30 [1, 6] was < 3000 nM, the EC30 [1, 3] was 87 nM and the IC50 [2] was < 100 nM. The IC50 [2, 5] was 38.2 nM.

In the case of `CN(CCN)Cc1c[nH]nc1C1=CCOCC1` [Compound 10], the EC30 [1, 3] is reported as > 20000 nM, the “In Cell Western EC30” value [1, 4] is reported as “C (“C” indicates an EC30 > 12.01 μM)” and the IC50 [2, 5] is reported as 310 nM.

`CNCCN(C)Cc1c[nH]nc1C1CC(COC)C(C)(C)C(COC)C1` (stereo not drawn) [Compound 86] was tested, and the EC30 [1, 6] was < 3000 nM, the EC30 [1, 3] was 16.8 nM and the IC50 [2] was 3010 to 10000 nM. For the same compound, the IC50 [2, 5] was 3410 nM.

In the case of `CN(CCN)Cc1c[nH]nc1C(C)(C)C` [Compound 27], the EC30 [1, 3] is reported as > 20000 nM, the “In Cell Western EC30” value [1, 4] is reported as “C (“C” indicates an EC30 > 12.01 μM)” and the IC50 [2, 5] is reported as 2410 nM.

In the case of `CN(CCN)Cc1n[nH]cc1C1CCC(C)(C)CC1` [Compound 36], the EC30 [1, 3] is reported as 630 nM, the “In Cell Western EC30” value [1, 4] is reported as “A (“A” indicates an EC30 ≤ 3.00 μM)” and the IC50 [2, 5] is reported as 10 nM.

In the case of `CNCCN(C)Cc1c[nH]nc1C1CCC2(CCCCC2)OC1` (stereo not drawn) [Compound 62], the EC30 [1, 6] is reported as < 3000 nM, the EC30 [1, 3] is reported as 169 nM and the IC50 [2] is reported as < 100 nM. For the same compound, the IC50 [2, 5] was 29 nM.

With `CNCCN(C)Cc1c[nH]nc1C1CCC(OC(C)C)CC1` (stereo not drawn) [Compound 56] the EC30 [1, 3] was 96 nM, the IC50 [2] was < 100 nM and the IC50 [2, 5] was 61.8 nM.

`CNCCN(C)Cc1c[nH]nc1C1CCC2(CCCC2)CC1` [Compound 48] was tested, and the EC30 [1, 6] was < 3000 nM, the EC30 [1, 3] was 14 nM and the IC50 [2] was < 100 nM. It also gave an IC50 [2, 5] of 17.8 nM.

For `CNCCN(C)Cc1cn(C)nc1C1CCC2(CCCC2)CC1` [Compound 47], the EC30 [1, 3] was 52 nM, the IC50 [2] was < 100 nM and the IC50 [2, 5] was 17.3 nM.

In the case of `CN(CCN)Cc1c[nH]nc1CCc1ccc(F)cc1` [Compound 23, N^1-((3-(4-fluorophenethyl)-1H-pyrazol-4-yl)methyl)-N^1-methylethane-1,2-diamine], the EC30 [1, 3] is reported as 1610 nM, the “In Cell Western EC30” value [1, 4] is reported as “A (“A” indicates an EC30 ≤ 3.00 μM)” and the IC50 [2, 5] is reported as 10 nM.

`CNCCN(C)Cc1c[nH]nc1C1CCN(CC(C)C)CC1` [Compound 39, N^1-((3-(1-isobutylpiperidin-4-yl)-1H-pyrazol-4-yl)methyl)-N^1,N^2-dimethylethane-1,2-diamine] was tested, and the EC30 [1, 3] was 500 nM, the “In Cell Western EC30” value [1, 4] was “A (“A” indicates an EC30 ≤ 3.00 μM)” and the IC50 [2, 5] was 10 nM.

With `CN(CCN)Cc1c[nH]nc1C1CCC1` [Compound 26] the EC30 [1, 3] was > 20000 nM, the “In Cell Western EC30” value [1, 4] was “C (“C” indicates an EC30 > 12.01 μM)” and the IC50 [2, 5] was 510 nM.

With `CNCCN(C)Cc1c[nH]nc1C1CCC(COC(C)C)(COC(C)C)CC1` [Compound 61] the EC30 [1, 6] was < 3000 nM, the EC30 [1, 3] was 149 nM and the IC50 [2] was < 100 nM. The IC50 [2, 5] was 49.1 nM.
